Measurements reported in PubChem BioAssay (NCI).
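GI50 marks 50% less growth. The concentration for full growth arrest is given as TGI.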

Assays:
Experiment in all cases: DTP human tumour cell line panel, 384-well format
BT-549 breast = tested on: BT-549 breast
HT29 colon = tested on: HT29 colon
UO-31 renal = tested on: UO-31 renal
SK-MEL-28 melanoma = tested on: SK-MEL-28 melanoma
SK-MEL-2 melanoma = tested on: SK-MEL-2 melanoma
TK-10 renal = tested on: TK-10 renal
HL-60(TB) leukemia = tested on: HL-60(TB) leukemia
MDA-MB-435 melanoma = tested on: MDA-MB-435 melanoma
ACHN renal = tested on: ACHN renal
OVCAR-4 ovarian = tested on: OVCAR-4 ovarian
IGROV1 ovarian = tested on: IGROV1 ovarian
NCI-H226 lung = tested on: NCI-H226 lung
U251 glioblastoma = tested on: U251 glioblastoma
UACC-257 melanoma = tested on: UACC-257 melanoma
NCI-H460 NSCLC = tested on: NCI-H460 NSCLC
EKVX NSCLC = tested on: EKVX NSCLC
K-562 leukemia = tested on: K-562 leukemia
786-0 renal = tested on: 786-0 renal
NCI-H522 lung = tested on: NCI-H522 lung
NCI-H23 lung = tested on: NCI-H23 lung
SNB-19 CNS = tested on: SNB-19 CNS
UACC-62 melanoma = tested on: UACC-62 melanoma
SK-OV-3 ovarian = tested on: SK-OV-3 ovarian
T-47D breast = tested on: T-47D breast
SR leukemia = tested on: SR leukemia
HCT-116 colon = tested on: HCT-116 colon
OVCAR-8 ovarian = tested on: OVCAR-8 ovarian
SF-539 CNS = tested on: SF-539 CNS
HS 578T breast = tested on: HS 578T breast
PC-3 prostate = tested on: PC-3 prostate
SN12C renal = tested on: SN12C renal
HOP-62 NSCLC = tested on: HOP-62 NSCLC
MOLT-4 leukemia = tested on: MOLT-4 leukemia
SNB-75 CNS = tested on: SNB-75 CNS
DU-145 prostate = tested on: DU-145 prostate
MDA-MB-231 breast = tested on: MDA-MB-231 breast
HCC-2998 colon = tested on: HCC-2998 colon
NCI/ADR-RES ovarian = tested on: NCI/ADR-RES ovarian
A498 renal = tested on: A498 renal
HOP-92 NSCLC = tested on: HOP-92 NSCLC
MDA-MB-468 breast = tested on: MDA-MB-468 breast
SF-268 CNS = tested on: SF-268 CNS
A549 NSCLC = tested on: A549 NSCLC
SK-MEL-5 melanoma = tested on: SK-MEL-5 melanoma
MALME-3M melanoma = tested on: MALME-3M melanoma
RPMI-8226 leukemia = tested on: RPMI-8226 leukemia
KM12 colon = tested on: KM12 colon
NCI-H322M lung = tested on: NCI-H322M lung
SF-295 CNS = tested on: SF-295 CNS
MCF7 breast = tested on: MCF7 breast
M14 melanoma = tested on: M14 melanoma
SW-620 colon = tested on: SW-620 colon
HCT-15 colon = tested on: HCT-15 colon
LOX IMVI melanoma = tested on: LOX IMVI melanoma
OVCAR-5 ovarian = tested on: OVCAR-5 ovarian
CAKI-1 renal = tested on: CAKI-1 renal

Cc1cnc(-c2ccc(-c3ccc(NC(=O)Nc4c(F)cc(F)cc4F)cc3F)c3c2C(=O)NC3)[nH]1 was tested, and the GI50 (BT-549 breast) was 214 nM, the TGI (BT-549 breast) was 981 nM and the GI50 (HT29 colon) was 1060 nM. For the same compound, the TGI (HT29 colon) was 2270 nM, the GI50 (UO-31 renal) was 161 nM and the TGI (UO-31 renal) was 7350 nM. For the same compound, the GI50 (SK-MEL-28 melanoma) was 633 nM, the TGI (SK-MEL-28 melanoma) was 2090 nM and the GI50 (SK-MEL-2 melanoma) was 395 nM. For the same compound, the TGI (SK-MEL-2 melanoma) was 1470 nM, the GI50 (TK-10 renal) was 1130 nM and the TGI (TK-10 renal) was 2420 nM. For the same compound, the GI50 (HL-60(TB) leukemia) was < 10 nM, the TGI (HL-60(TB) leukemia) was 121 nM and the GI50 (MDA-MB-435 melanoma) was 397 nM. It also gave a TGI (MDA-MB-435 melanoma) of 1760 nM, a GI50 (ACHN renal) of 957 nM and a TGI (ACHN renal) of 4520 nM. The GI50 (OVCAR-4 ovarian) was 196 nM, the TGI (OVCAR-4 ovarian) was 452 nM and the GI50 (IGROV1 ovarian) was 1300 nM. It also gave a TGI (IGROV1 ovarian) of 6510 nM, a GI50 (NCI-H226 lung) of 1360 nM and a TGI (NCI-H226 lung) of 2740 nM. It also gave a GI50 (U251 glioblastoma) of 623 nM, a TGI (U251 glioblastoma) of 1960 nM and a GI50 (UACC-257 melanoma) of 856 nM. For the same compound, the TGI (UACC-257 melanoma) was 2140 nM, the GI50 (NCI-H460 NSCLC) was < 10 nM and the TGI (NCI-H460 NSCLC) was 201 nM. It also gave a GI50 (EKVX NSCLC) of 816 nM, a TGI (EKVX NSCLC) of 3570 nM and a GI50 (K-562 leukemia) of 227 nM. The TGI (K-562 leukemia) was 1350 nM, the GI50 ([…]-0 renal) was 575 nM and the TGI (786-0 renal) was 1890 nM. For the same compound, the GI50 (NCI-H522 lung) was 1140 nM, the TGI (NCI-H522 lung) was 2400 nM and the GI50 (NCI-H23 lung) was 450 nM. For the same compound, the TGI (NCI-H23 lung) was 1700 nM, the GI50 (SNB-19 CNS) was 1250 nM and the TGI (SNB-19 CNS) was 2620 nM. For the same compound, the GI50 (UACC-62 melanoma) was 219 nM, the TGI (UACC-62 melanoma) was 1340 nM and the GI50 (SK-OV-3 ovarian) was 341 nM. The TGI (SK-OV-3 ovarian) was 1530 nM, the GI50 (T-47D breast) was 1600 nM and the TGI (T-47D breast) was 3000 nM. The GI50 (SR leukemia) was < 10 nM, the GI50 (HCT-116 colon) was 153 nM and the TGI (HCT-116 colon) was 1680 nM. The GI50 (OVCAR-8 ovarian) was 1090 nM, the TGI (OVCAR-8 ovarian) was 2340 nM and the GI50 (SF-539 CNS) was 305 nM. It also gave a TGI (SF-539 CNS) of 1870 nM, a GI50 (HS 578T breast) of 232 nM and a TGI (HS 578T breast) of 653 nM. For the same compound, the GI50 (PC-3 prostate) was 1190 nM, the TGI (PC-3 prostate) was 2440 nM and the GI50 (SN12C renal) was 462 nM. It also gave a TGI (SN12C renal) of 2000 nM, a GI50 (HOP-62 NSCLC) of 227 nM and a TGI (HOP-62 NSCLC) of 1270 nM. For the same compound, the GI50 (MOLT-4 leukemia) was < 10 nM, the GI50 (SNB-75 CNS) was 340 nM and the TGI (SNB-75 CNS) was 897 nM. It also gave a GI50 (DU-145 prostate) of 463 nM, a TGI (DU-145 prostate) of 1880 nM and a GI50 (MDA-MB-231 breast) of 1030 nM. For the same compound, the TGI (MDA-MB-231 breast) was 2350 nM, the GI50 (HCC-2998 colon) was 1270 nM and the TGI (HCC-2998 colon) was 2690 nM. For the same compound, the GI50 (NCI/ADR-RES ovarian) was > 100000 nM, the TGI (NCI/ADR-RES ovarian) was > 100000 nM and the GI50 (A498 renal) was 165 nM. For the same compound, the TGI (A498 renal) was 1160 nM, the GI50 (HOP-92 NSCLC) was 1460 nM and the TGI (HOP-92 NSCLC) was 2790 nM. The GI50 (MDA-MB-468 breast) was < 10 nM, the TGI (MDA-MB-468 breast) was 434 nM and the GI50 (SF-268 CNS) was 277 nM. For the same compound, the TGI (SF-268 CNS) was 1500 nM, the GI50 (A549 NSCLC) was 616 nM and the TGI (A549 NSCLC) was 2150 nM. It also gave a GI50 (SK-MEL-5 melanoma) of 367 nM, a TGI (SK-MEL-5 melanoma) of 1520 nM and a GI50 (MALME-3M melanoma) of 52.2 nM. It also gave a TGI (MALME-3M melanoma) of 727 nM, a GI50 (RPMI-8226 leukemia) of 19.1 nM and a TGI (RPMI-8226 leukemia) of 386 nM. The GI50 (KM12 colon) was < 10 nM, the TGI (KM12 colon) was 1140 nM and the GI50 (NCI-H322M lung) was 1300 nM. The TGI (NCI-H322M lung) was 3110 nM, the GI50 (SF-295 CNS) was 1120 nM and the TGI (SF-295 CNS) was 2420 nM. It also gave a GI50 (MCF7 breast) of 324 nM, a TGI (MCF7 breast) of 1490 nM and a GI50 (M14 melanoma) of 157 nM. It also gave a TGI (M14 melanoma) of 1230 nM, a GI50 (SW-620 colon) of 234 nM and a TGI (SW-620 colon) of 1310 nM. It also gave a GI50 (HCT-15 colon) of 748 nM, a TGI (HCT-15 colon) of 13100 nM and a GI50 (LOX IMVI melanoma) of 345 nM. It also gave a TGI (LOX IMVI melanoma) of 1690 nM, a GI50 (OVCAR-5 ovarian) of 1240 nM and a TGI (OVCAR-5 ovarian) of 2870 nM. The GI50 (CAKI-1 renal) was 1080 nM and the TGI (CAKI-1 renal) was 2320 nM.
